Reference: patent publication US20230365592A1 (Agios Pharmaceuticals, Inc., priority 2022, published 2023)
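Also: after compound treatment, cells received sepiapterin plus isotope-labelled Phenylalanine for 4 hours, then labelled Tyrosine in the medium was quantified, 10-point 2-fold dilution series run in duplicate.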

What follows are compounds tested against T1, human PAH with the R408W mutation (Homo sapiens, UniProt P00439, R408W) (assay: Cell Based Phenylalanine Flux Assay). Conditions: A375 cells expressing R408W PAH; 24 hrs with compound, then 20 µM sepiapterin and 800 µM 13C9,15N-Phenylalanine for 4 hours; 13C-Tyrosine by LC-MS; average where tested multiple times; read-out: AC50.
T1 construct: expressed in transfected cells
T1 sequence (P00439 1-452 R408W): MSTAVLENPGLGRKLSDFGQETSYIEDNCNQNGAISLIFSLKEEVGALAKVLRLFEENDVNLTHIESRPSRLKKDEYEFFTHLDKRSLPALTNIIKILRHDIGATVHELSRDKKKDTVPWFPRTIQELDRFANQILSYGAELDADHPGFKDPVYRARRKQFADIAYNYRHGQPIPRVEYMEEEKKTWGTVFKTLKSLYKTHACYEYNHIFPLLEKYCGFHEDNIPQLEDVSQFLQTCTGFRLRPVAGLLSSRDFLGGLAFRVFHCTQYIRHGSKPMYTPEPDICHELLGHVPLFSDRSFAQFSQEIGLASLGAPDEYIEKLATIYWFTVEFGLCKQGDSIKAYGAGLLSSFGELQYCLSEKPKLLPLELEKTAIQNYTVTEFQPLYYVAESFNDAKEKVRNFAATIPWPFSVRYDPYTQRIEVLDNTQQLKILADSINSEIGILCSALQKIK
`O=C(c1nnc(C2CC(F)(F)C2)o1)N1CCc2[nH]cnc2[C@@H]1c1cc2cccc(C(F)F)n2n1` (single isomer, unassigned) was tested, and the AC50 was over 5 µM. In the case of `Cn1cc(N2CCc3[nH]cnc3C2c2cc3c(F)cccn3n2)cn1` (centres unmarked), the AC50 was 1 to 5 µM. Work on `O=C(c1cnn2cc(N3CCOCC3)ccc12)N1CCc2[nH]cnc2C1c1cc2ccccn2n1` (centres unmarked) yielded an AC50 of 1 to 5 µM. In the case of `Cn1cnc(-c2nnc(C(=O)N3CCc4[nH]cnc4C3c3cc4c(C(F)F)cccn4n3)o2)c1` (centres unmarked), the AC50 was 1 to 5 µM. Work on `O=C(c1nnc(-c2ccccn2)o1)N1CCc2[nH]cnc2C1c1cc2cc(C(F)(F)F)ccn2n1` (centres unmarked) yielded an AC50 of 1 to 5 µM.

Same assay, conditions: A375 cells expressing human PAH R408W; 24 hrs compound incubation; 13C-Tyrosine by LC-MS; average where tested multiple times; read-out: AC50
`Cc1cccnc1-c1nnc(N2CCc3[nH]cnc3[C@@H]2c2cc3c(C(C)C)cccn3n2)o1` [Example 2284, (R)-2-(4-(4-isopropylpyrazolo[1,5-a]pyridin-2-yl)-1,4,6,7-tetrahydro-5H-imidazo[4,5-c]pyridin-5-yl)-5-(3-methylpyridin-2-yl)-1,3,4-oxadiazole] gave an AC50 of over 5 µM. `FC(F)Oc1cccn2nc([C@H]3c4nc[nH]c4CCN3c3cnccn3)cc12` [Example 2318, (R)-4-(4-(difluoromethoxy)pyrazolo[1,5-a]pyridin-2-yl)-5-(pyrazin-2-yl)-4,5,6,7-tetrahydro-1H-imidazo[4,5-c]pyridine] was tested, and the AC50 was over 5 µM. With `Fc1cccn2nc([C@@H]3c4nc[nH]c4CCN3c3ccc(C(F)(F)F)cn3)cc12` [Example 1943, (S)-4-(4-fluoropyrazolo[1,5-a]pyridin-2-yl)-5-(5-(trifluoromethyl)pyridin-2-yl)-4,5,6,7-tetrahydro-1H-imidazo[4,5-c]pyridine] the AC50 was under 0.5 µM. With `CCc1cccn2nc([C@H]3c4nc[nH]c4CCN3C(=O)c3nnc(C4CC4)o3)cc12` [Example 1874, (R)-(5-cyclopropyl-1,3,4-oxadiazol-2-yl)(4-(4-ethylpyrazolo[1,5-a]pyridin-2-yl)-1,4,6,7-tetrahydro-5H-imidazo[4,5-c]pyridin-5-yl)methanone] the AC50 was over 5 µM. `Cc1cc(-c2nnc(C(=O)N3CCc4[nH]cnc4[C@H]3c3cc4c(C(C)C)cccn4n3)o2)nn1C` [Example 2007, (S)-(5-(1,5-dimethyl-1H-pyrazol-3-yl)-1,3,4-oxadiazol-2-yl)(4-(4-isopropylpyrazolo[1,5-a]pyridin-2-yl)-1,4,6,7-tetrahydro-5H-imidazo[4,5-c]pyridin-5-yl)methanone] was tested, and the AC50 was under 0.5 µM. Compound `O=C(c1cnn(CC(F)(F)F)c1C(F)F)N1CCc2[nH]cnc2[C@@H]1c1cc2ccccn2n1` [Example 2369, (R)-(5-(difluoromethyl)-1-(2,2,2-trifluoroethyl)-1H-pyrazol-4-yl)(4-(pyrazolo[1,5-a]pyridin-2-yl)-6,7-dihydro-1H-imidazo[4,5-c]pyridin-5(4H)-yl)methanone] has an AC50 of over 5 µM.

Same assay, conditions: A375 cells expressing human R408W PAH; 24 hrs compound incubation; 13C-Tyrosine by LC-MS; average where tested multiple times; read-out: AC50
Compound `O=C(c1nnc(-c2cnn(S(=O)(=O)C3CC3)c2)o1)N1CCc2[nH]cnc2[C@@H]1c1cc2c(F)cccn2n1` [Example 835, (R)-(5-(1-(cyclopropylsulfonyl)-1H-pyrazol-4-yl)-1,3,4-oxadiazol-2-yl)(4-(4-fluoropyrazolo[1,5-a]pyridin-2-yl)-6,7-dihydro-1H-imidazo[4,5-c]pyridin-5(4H)-yl)methanone] has an AC50 of over 5 µM. `CC(C)(F)c1nnc(C(=O)N2CCc3[nH]cnc3[C@@H]2c2cc3c(F)cccn3n2)o1` [Example 1025, (R)-(5-(2-fluoropropan-2-yl)-1,3,4-oxadiazol-2-yl)(4-(4-fluoropyrazolo[1,5-a]pyridin-2-yl)-6,7-dihydro-1H-imidazo[4,5-c]pyridin-5(4H)-yl)methanone] showed an AC50 of 1 to 5 µM. `CC(C)(O)c1nc(C(F)F)c(C(=O)N2CCc3[nH]cnc3[C@H]2c2cc3ccc(F)cn3n2)o1` [Example 1070, (S)-(4-(difluoromethyl)-2-(2-hydroxypropan-2-yl)oxazol-5-yl)(4-(6-fluoropyrazolo[1,5-a]pyridin-2-yl)-6,7-dihydro-1H-imidazo[4,5-c]pyridin-5(4H)-yl)methanone] gave an AC50 of under 0.5 µM. `Cc1cccn2nc([C@H]3c4nc[nH]c4CCN3C(=O)c3oc([C@@H](C)O)nc3C(F)F)cc12` [Example 739, (4-(difluoromethyl)-2-((R)-1-hydroxyethyl)oxazol-5-yl)((R)-4-(4-methylpyrazolo[1,5-a]pyridin-2-yl)-6,7-dihydro-1H-imidazo[4,5-c]pyridin-5(4H)-yl)methanone] showed an AC50 of 1 to 5 µM. With `CC(C)(O)c1nc(C(F)F)c(C(=O)N2CCc3[nH]cnc3[C@H]2c2cc3c(C(F)(F)F)cccn3n2)o1` [Example 810, (S)-(4-(difluoromethyl)-2-(2-hydroxypropan-2-yl)oxazol-5-yl)(4-(4-(trifluoromethyl)pyrazolo[1,5-a]pyridin-2-yl)-6,7-dihydro-1H-imidazo[4,5-c]pyridin-5(4H)-yl)methanone] the AC50 was under 0.5 µM. `FC(F)(F)c1cccc2cc([C@H]3c4nc[nH]c4CCN3c3ncccn3)nn12` [Example 1764, (R)-5-(pyrimidin-2-yl)-4-(7-(trifluoromethyl)pyrazolo[1,5-a]pyridin-2-yl)-4,5,6,7-tetrahydro-1H-imidazo[4,5-c]pyridine] showed an AC50 of 1 to 5 µM. In the case of `Cc1c(-c2nnc(C(=O)N3CCc4[nH]cnc4[C@@H]3c3cc4cccc(C(F)(F)F)n4n3)o2)cnn1C` [Example 1191, (R)-(5-(1,5-dimethyl-1H-pyrazol-4-yl)-1,3,4-oxadiazol-2-yl)(4-(7-(trifluoromethyl)pyrazolo[1,5-a]pyridin-2-yl)-6,7-dihydro-1H-imidazo[4,5-c]pyridin-5(4H)-yl)methanone], the AC50 was 1 to 5 µM. `Cc1c(-c2nnc(C(=O)N3CCc4[nH]cnc4[C@H]3c3cc4c(C(F)(F)F)cccn4n3)o2)cnn1C` [Example 1204, (S)-(5-(1,5-dimethyl-1H-pyrazol-4-yl)-1,3,4-oxadiazol-2-yl)(4-(4-(trifluoromethyl)pyrazolo[1,5-a]pyridin-2-yl)-6,7-dihydro-1H-imidazo[4,5-c]pyridin-5(4H)-yl)methanone] was tested, and the AC50 was under 0.5 µM. With `O=C(c1nnc(-c2ncccc2F)o1)N1CCc2[nH]cnc2[C@H]1c1cc2ccccn2n1` [Example 616, (S)-(5-(3-fluoropyridin-2-yl)-1,3,4-oxadiazol-2-yl)(4-(pyrazolo[1,5-a]pyridin-2-yl)-6,7-dihydro-1H-imidazo[4,5-c)pyridin-5(4H)-yl)methanone] the AC50 was 0.5 to 1 µM. `COc1ccc2c(C(=O)N3CCc4[nH]cnc4[C@H]3c3cc4c(C(F)F)cccn4n3)cnn2c1` [Example 1676, (S)-(4-(4-(difluoromethyl)pyrazolo[1,5-a]pyridin-2-yl)-6,7-dihydro-1H-imidazo[4,5-c]pyridin-5(4H)-yl)(6-methoxypyrazolo[1,5-a]pyridin-3-yl)methanone] was tested, and the AC50 was 0.5 to 1 µM. Work on `Cc1ncoc1C(=O)N1CCc2[nH]cnc2[C@@H]1c1cc2cccc(C)n2n1` [Example 1149, (R)-(4-methyloxazol-5-yl)(4-(7-methylpyrazolo[1,5-a]pyridin-2-yl)-6,7-dihydro-1H-imidazo[4,5-c]pyridin-5(4H)-yl)methanone] yielded an AC50 of 1 to 5 µM. Work on `O=C(c1nnc(-c2cccnc2)o1)N1CCc2[nH]cnc2[C@@H]1c1cc2c(C(F)(F)F)cccn2n1` [Example 1303, (R)-(5-(pyridin-3-yl)-1,3,4-oxadiazol-2-yl)(4-(4-(trifluoromethyl)pyrazolo[1,5-a]pyridin-2-yl)-6,7-dihydro-1H-imidazo[4,5-c]pyridin-5(4H)-yl)methanone] yielded an AC50 of 1 to 5 µM.
